“Also recorded” adds a separate entry of the source.

For series [1], the system named is mouse oligodendrocyte progenitor cells (OPCs). In words: Mouse OPC differentiation with IRX4204 and T3. Format: cell-based. As to conditions: 5-day treatment, 96-well plates. How it is done:
OPCs were derived from plp-EGFP expressing mice.
Therapeutic agents were tested in 96-well plates (6 wells per concentration). […] All media contained 0.1% DMSO. At the end of the 5-day treatment, cells were imaged on Cellomics in two channels and algorithms were used to count nuclei and EGFP+oligodendrocytes.

Series [2] has as its system cuprizone+rapamycin demyelination in C57BL/6J mice. In words: Cuprizone/rapamycin 12-week demyelination, 6-week remyelination treatment. Format: in vivo. From the text: All animals were sacrificed after 12 weeks of CR or after further 6 weeks of treatment to evaluate myelin in white matter (corpus callosum) and gray matter (hippocampus and cortex). In addition, the size of myelinated axons was quantified and the large myelinated axons were further assessed by 3D-electron microscopy (3D-EM). A total of 40 animals were included in the study, where all 40 animals received CR demyelination for 12 weeks. After demyelination, a subset (n=10) of animals are sacrificed to serve as controls to assess baseline demyelination. […] Floating brain sections are immunostained with myelin prolipid protein (PLP) to visualize and quantify myelin in gray matter, hippocampus (FIG. 16A) and cortex (FIG. 16B).

Series [3] has as its system focal demyelination of caudal cerebellar peduncles in rats. Put plainly: Ethidium bromide focal demyelination in one year old rats. The note with it: IRX4204 10 mg/kg/day oral, thyroxine 20 ng/g s.c., day 7 to 21. Format: in vivo. How it is done:
The experiment uses rats of relatively advanced age (1 year) since such rats undergo remyelination in a less efficient manner, thereby providing data that are more relevant to the clinical treatment of human patients with multiple sclerosis or other demyelination disorders.
Focal demyelination is induced in one year old rats (approximately 300 g in weight) by injecting stereotactically 5 μl of ethidium bromide solution (0.01% vol/vol in saline) in a bilateral manner into the caudal cerebellar peduncles (CCP). […] The rats are killed on day 24 post-ethidium bromide treatment for analysis of remyelination by quantitative polymerase chain reaction (qPCR) and microscopy.

The test system of series [4] is EAE in B6 mice. In words: EAE dose titration in B6 mice with spleen and CNS flow analysis. The series is classed as in vivo. How it is done: A dose titration experiment was also conducted in EAE mice. EAE was induced in 28 B6 mice with MOG/CFA and PT as above. Mice were scored on day 7 as indicated above and divided into groups by score so means are as equal as possible.
At the completion of the experiment, the vehicle control and 200 μg/day groups were euthanized and spleen and CNS samples obtained.

The test system of series [5] is cuprizone+rapamycin (CR) demyelination in C57BL/6J mice.
Text: Animals (8 week-old male C57BL/6J mice) were subjected to cuprizone diet plus rapamycin injections (CR) for 6 weeks to induce demyelination. […] All animals were sacrificed after 6 weeks of CR to evaluate axonal integrity and microglial/macrophage activity in the white matter (corpus callosum, CC).
A total of 50 animals were included in the study, where 43 animals received CR demyelination for 6 weeks. During demyelination, a subset (n=7) of animals were kept on normal diet to serve as naïve age-matched controls.
To assess thyroid hormone levels, terminal blood draws were taken to quantify the levels of T4.
Series [6] has as its target Nurr1/RXR heterodimer (Homo sapiens, UniProt P19793). In words: Nurr1/RXR transactivation assay (COS 7 cells, NBRE-tk-luc). As to conditions: Nurr-1 with or without RXRα. The series is classed as cell-based. The source says: (§1) For PPARγ: CV-1 cells were transfected with 3×(rAOX/DR1)-tk-Luc reporter gene and an expression vector for PPARγ. For FXR:CV-1 cells were transfected with 3×(IBABP/IRI)-tk-Luc reporter gene and vectors for FXR and RXRα. For LXR:CV-1 cells were transfected with 3×(PLTP/LXRE)-tk-Luc reporter gene with vectors for LXRα or LXRβ. For Nurr1: COS 7 cells were transfected with 3×NBRE-tk-luc reporter gene and full length Nurr-1 with or without full-length RXRα plasmid. […] Luciferase data were normalized to co-transfected β-gal activity. Luciferase activity was expressed as percent of maximal activity obtained using specific agonists. Rosiglitazone (PPARγ), GW4064 (FXR), T0901317 (LXR).

Series [7] deals with CNS infiltrating leukocytes in EAE C57BL/6 (B6) mice. In words: CNS infiltrating cells in EAE B6 mice (FACS). The series is classed as in vivo. As to conditions: day 20 after immunization, vs vehicle control. How it is done: To determine whether a RXR agonist can reduce central nervous system (CNS) infiltrating cells, C57BL/6 (B6) mice were treated as described in Example 6. On day 20 after immunization, mice were sacrificed and perfused with phosphate buffered saline (PBS). Brain and spinal cord tissue was isolated, digested with DNase and LIBERASE DL® (Roche Diagnostics, Indianapolis, Ind.) for 30 minutes, and homogenized through 70 micron nylon mesh filters. Resulting cells were placed over a Percoll gradient to remove myelin. The remaining cells (microglia and CNS infiltrating cells) were counted, stained for molecules of interest, and run on a flow cytometer. Based on the frequencies obtained by FACS of these cell populations, total cell numbers of CNS infiltrating leukocytes expressing CD45, including CD4^+ T cells and CD11c^+ CD11b^+ myeloid dendritic cells (DC), were calculated.

For series [8], the target named is T1, RXRα (Homo sapiens, UniProt P19793).
T1 sequence (P19793 1-462): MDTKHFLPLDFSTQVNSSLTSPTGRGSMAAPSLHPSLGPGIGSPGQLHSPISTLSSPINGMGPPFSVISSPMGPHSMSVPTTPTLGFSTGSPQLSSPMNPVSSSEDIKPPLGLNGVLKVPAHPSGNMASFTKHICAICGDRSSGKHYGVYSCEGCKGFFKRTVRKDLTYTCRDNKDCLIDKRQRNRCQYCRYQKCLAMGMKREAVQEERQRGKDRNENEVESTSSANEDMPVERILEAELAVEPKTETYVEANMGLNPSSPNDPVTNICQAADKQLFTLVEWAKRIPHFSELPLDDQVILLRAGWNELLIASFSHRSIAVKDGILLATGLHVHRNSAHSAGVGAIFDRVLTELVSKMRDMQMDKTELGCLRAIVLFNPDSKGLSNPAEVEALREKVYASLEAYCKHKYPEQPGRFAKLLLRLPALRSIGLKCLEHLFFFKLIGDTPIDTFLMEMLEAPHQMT
As to conditions: transactivation assays. How it is done:
To determine whether a RXR agonist can mediate its effects via RXRα receptor homodimers, RXRβ receptor homodimers, RXRγ receptor homodimers, or any combination thereof, or the corresponding RAR/RXR heterodimers, receptor-mediated transactivation assays were performed. For transactivation assays assessing RXR homodimer signaling, CV-1 cells were transfected with 1) an expression construct including a full length RXRα, RXRβ, or RXRγ; and 2) a rCRBPII/RXRE-tk-Luc reporter construct that included RXR homodimer-specific RXRE/DR1 responsive element linked to a luciferase gene. For transactivation assays assessing RAR/RXR heterodimer signaling, CV-1 cells were transfected with 1) an expression construct comprising a fusion protein including an estrogen receptor (ER) DNA binding domain linked to the ligand binding domain of RARα, RARβ, or RARγ and 2) a ERE-tk-Luc reporter construct that included an estrogen receptor responsive element linked to a luciferase gene. […] Data are mean values±SE from five independent experiments.

For series [9], the system named is experimental autoimmune encephalomyelitis (EAE) in C57BL/6 (B6) mice. Put plainly: EAE in B6 mice (MOG peptide), disease severity score. Format: in vivo. The note with it: IRX4204 50 μg every other day from day 7 to day 20; vs vehicle. How it is done: Mice were also given 200 ng of pertussis toxin in PBS administered by inter-peritoneal (i.p.) injection on the same day as MOG emulsion injection (day 0) and 2 days later (day 2). […] Mice were scored using the following scale: 0—Mice have no disease, 1—Mice have distal limp tail or rear leg weakness (paresis), 1.5—Mice have distal limp tail and rear leg weakness, 2—Mice have complete limp tail and rear leg weakness, 2.5—Mice have complete limp tail and weakness in both rear legs, 3—Mice have complete limp tail and paralysis in both rear legs, 3.5—Mice have complete limp tail, paralysis in both rear legs, and forelimb weakness. Mice receiving a score of 3.5 were immediately euthanized.

Series [10] has as its system LXRβ/RXR. In words: LXRβ/RXR transactivation assay (CV-1 cells). The note with it: 20 hr; relative to T0901317. Format: cell-based.
Text: as §1

Series [11] deals with LXRα/RXR. Put plainly: LXRα/RXR transactivation assay (CV-1 cells). The series is classed as cell-based. As to conditions: 20 hr; relative to T0901317.
Text: as §1

In series [12] the test system is oligodendrocyte precursor cells (OPCs). In words: OPC differentiation into oligodendrocytes (PLP-EGFP, Example 7). The series is classed as cell-based, mouse. As to conditions: compared to negative control (DMSO). From the text: OPCs were generated from a neurosphere culture of E14.5 PLP-EGFP (on C57BL/6J background) mouse brains. […] The EGFP expressing cells were quantified with Cellomics Neuronal Profiling Algorithm.
The EGFP expressing cells in controls and all compounds were quantified with Cellomics Neuronal Profiling Algorithm.

Series [13] relates to EAE in SJL mice. In words: EAE in SJL mice (PLP peptide). The series is classed as in vivo. How it is done:
To determine whether a RXR agonist can attenuate multiple sclerosis, SJL mice were immunized to induce EAE by s.c. injection at the base of their spine with 200 μL of adjuvant containing 200 μg proteolipid proteins (139-151) (PLP peptide; Peptides International, Louisville, Ky.) and 400 μg of non-viable M. tuberculosis H37 desiccate emulsified in a mixture of incomplete Freund's adjuvant and PBS. Mice were also given 150 ng of pertussis toxin in PBS i.p. on the same day as PLP emulsion injection and 2 days later. […] Mice were scored using the scale described in Example 3.

Setting [14] is: CNS, restimulation with PMA/Ionomycin, 200 μg/day vs vehicle.

Sequence of Nurr1/RXR heterodimer (P43354 whole entry partner, one chain of several): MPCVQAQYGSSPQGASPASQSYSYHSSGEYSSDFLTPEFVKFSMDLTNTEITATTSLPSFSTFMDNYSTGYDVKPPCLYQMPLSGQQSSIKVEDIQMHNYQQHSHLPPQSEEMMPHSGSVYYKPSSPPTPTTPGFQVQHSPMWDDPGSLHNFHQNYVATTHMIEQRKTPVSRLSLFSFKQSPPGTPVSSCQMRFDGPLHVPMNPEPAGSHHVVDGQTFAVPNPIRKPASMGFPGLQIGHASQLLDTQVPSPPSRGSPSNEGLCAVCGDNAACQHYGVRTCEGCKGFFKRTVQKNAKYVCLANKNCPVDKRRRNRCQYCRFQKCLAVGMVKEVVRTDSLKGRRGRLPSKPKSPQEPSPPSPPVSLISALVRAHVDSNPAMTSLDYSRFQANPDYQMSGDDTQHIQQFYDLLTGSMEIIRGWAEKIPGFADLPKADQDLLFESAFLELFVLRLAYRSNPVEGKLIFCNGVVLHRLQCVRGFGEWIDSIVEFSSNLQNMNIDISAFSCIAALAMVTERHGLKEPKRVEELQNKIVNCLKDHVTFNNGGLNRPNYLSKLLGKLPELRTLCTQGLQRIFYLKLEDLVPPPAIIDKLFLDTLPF

Take `N[C@@H](Cc1cc(I)c(Oc2ccc(O)c(I)c2)c(I)c1)C(=O)O` [Compound T3, triiodothyronine, reference compound]: the “oligodendrocyte production (EGFP+ oligodendrocytes)” value in [1] is listed as “clear dose-responses”.

With `CC(/C=C/[C@@H]1C[C@]1(C)c1ccc2c(c1)C(C)(C)CCC2(C)C)=C\C(=O)O` [IRX4204, 3,7-dimethyl-6(S),7(S)-methano,7-[1,1,4,4-tetramethyl-1,2,3,4-tetrahydronaphth-7-yl]2(E),4(E) heptadienoic acid], the “oligodendrocyte production (EGFP+ oligodendrocytes)” value in series [1] is reported as “clear dose-responses”. Moreover, in series [2] (10 mg/kg PO daily for 6 weeks after 12 weeks CR), the body weight result is listed as “no significant difference”. Besides, the “size of myelinated axons in the corpus callosum” value in series [2] (6 weeks of treatment after 12 weeks CR) was “significantly increases; also recorded: shift in distribution to larger axon diameter”. For the same molecule, the “size of axons in the upper quartile” value in [2] (6 weeks of treatment, 3rd quartile, axons about 0.7 μm, P<0.0001) is “significant increase”. Further, in [3], the “Mbp expression (real-time qPCR of lesion samples)” value is reported as “increase”, the “Pdgfra expression (real-time qPCR of lesion samples)” value is “increase” and the “remyelinated axons (ultrastructural analyses of CCP lesions)” value is reported as “more remyelinated axons than vehicle treatment”. Further, in series [3] (vs vehicle), the “Nkx2.2+ oligodendrocyte precursor cells (OPCs) in lesions” value is reported as “increased”, the “density of CC1+ differentiated oligodendrocytes in lesions” value is on record as “increased” and the “density of Olig2+ oligodendrocyte lineage cells in lesions” value is given as “increased”. Further, in [4] (50 μg, 100 μg, or 200 μg every day from day 8, vs vehicle), the EAE disease overall entry is recorded as “significantly less disease overall”. Also, in [4] (CNS, 200 μg/day vs vehicle), the “Co-expression of IFNg and IL-17A by CD4 T cells in CNS” value was “not significantly different between groups”; the “total number of infiltrating CD4 T cells in the CNS” value is recorded as “reduced”. For the same molecule, in [4] (setting [14]), the “IFNγ production by CNS infiltrating lymphocytes” value is “significantly reduced” and the “TNF production by CNS infiltrating lymphocytes” value is on record as “significantly reduced”. Also, in series [4] (spleen, 200 μg/day vs vehicle), the “CCR6 expression on CD4 T cells” value is “lowered CCR6”, the “CD4+ CD25hi cells (number)” value is on record as “reduced”, the “CD4+ CD25hi cells frequency” value was “not altered” and the “CD49d expression on CD4 T cells” value is on record as “but not CD49d”. Besides, in series [4] (spleen, 200 μg/day vs vehicle), the “total number of effector and memory CD4 T cells (CD44 expression)” value is “decreased”; the “total number of recently activated CD4 T cells (CD69 and CD44)” value was “also decreased”. Also, the “microglial/macrophage activation (Iba1 staining in CC)” value in series [5] (6 weeks concurrent treatment, vs vehicle) is “no difference”. The terminal body weights result in series [5] (ANOVA, vs vehicle) is recorded as “no significant difference”. The “number of SMI32 positive axonal ovoids in the corpus callosum” value in series [5] (IRX4204 10 mg/kg PO, T4 20 ng/g SQ daily for 6 weeks during CR, vs Vehicle, 10 mg/kg) was “trend towards decreased number of axonal ovoids but was not statistically different from the Vehicle; also recorded: trend towards decrease in axonal ovoids, but it was statistically not different from vehicle”. The “mortality during the in-life phase” value in [5] (mouse, in vivo) is given as “no mortality”. The “decrease in T4 levels compared to vehicle control animals” value in [5] (terminal blood draws) is given as approximately 50%. In [6], the “activation of Nurr1/RXR heterodimer” value was “selectively activates the Nurr1/RXR permissive heterodimer; also recorded: selectively activates RXR-Nurr1 heterodimers”. Besides, in [7], the “infiltration of CD4+ cells in to the CNS” value is “significant reduction” and the “infiltration of CD11c+ CD11b+ cells (myeloid DC) in to the CNS” value is listed as “significant reduction”. Besides, in series [8], the “more potent in activating RXR receptors rather than RAR receptors” value is listed as > 1,000 fold. Also, the “symptoms of EAE (disease severity score)” value in [9] is on record as “significantly reduces the symptoms of EAE”. In addition, in series [10], the “activation of LXRβ/RXR” value is reported as “not to transactivate; also recorded: does not activate”. Besides, in series [11], the “activation of LXRα/RXR” value was “not to transactivate; also recorded: does not activate”. Further, in series [12], the “OPC differentiation into oligodendrocytes (number of EGFP positive cells)” value is “significant increase; also recorded: dose dependent increase”. Besides, in series [13] (50 μg i.p. every other day from day 7 to day 14), the “symptoms of EAE (disease severity score)” value was “significantly reduces the symptoms of EAE”. For the same molecule, the “Death from Disease” value in series [13] (50 μg i.p. every other day, n=6) is reported as 0/6.
